This passage reports IC50 results from patent US20250304537A1 (Repare Therapeutics Inc., priority 2022, published 2025).

Bounds are passed on as bounds.

The first test relates to PKMYT1 (CDK1 pThr14) in FUOV1 cells. Description: PKMYT1 cell-based activity assay, CDK1 pThr14 AlphaLISA in FUOV1 cells. To be noted: 2 h, 2 h compound incubation, read-out: FUOV-1 CDK1 pThr14 IC50. The protocol: To determine compound IC50 (PKMYT1 cell-based activity assay, CDK1 pThr14 AlphaLISA), FUOV1 cells were plated into a 96-well TC-treated culture plate at 50000 cells/well in a final volume of 100 μL of media. The plates were then allowed to equilibrate in a biological safety cabinet for 30 minutes before being placed in a humidified incubator at 37 C and 5% CO2 overnight. The next day, 2 μL of PKMYT1 inhibitors or DMSO were diluted in 400 μL of warmed culture media in a 96-well block using a Biomek FX liquid handler. Compounds were mixed in media and then 25 μL was dispensed into each well of the 96-well cell plate. Plates were centrifuged at 300 g for 10 seconds and then placed in the incubator for 2 hours. After the 2-hour incubation with compound, media was removed via aspiration using a multichannel pipette. 30 μL of 1× AlphaLISA lysis buffer (Perkin Elmer) supplemented with protease and phosphatase inhibitors as well as 1 mM PMSF, was added to each well. Plates were rotated at 500 g for 20 minutes to facilitate lysis. Plates were then sealed with aluminum foil and frozen at −80° C. for at least 1 hour. Lysates were thawed at 37° C. for 10 minutes, then 10 μL of each lysate was transferred in duplicate to a white 384-well assay plate. Antibody mixture was prepared in 1× AlphaLISA assay buffer (Perkin Elmer) containing antibodies (5 nM final concentration for rabbit pThr14-CDK1 from Abcam #ab58509 and mouse total CDK1 from ThermoFisher Scientific #33-1800). 5 μL of antibody mixture was added to each well of the assay plate. The assay plate was sealed and stored at 4° C. overnight. The next day, AlphaLISA bead mixture (Perkin Elmer) was prepared in 1× AlphaLISA assay buffer. Anti-rabbit IgG Acceptor (Perkin Elmer #AL104C) and anti-mouse IgG Donor beads (Perkin Elmer #AS104D) were prepared to a concentration of 80 μg/ml in assay buffer. 5 μL of bead mixture was added to each well of the assay plate (20 μg/ml final concentration for each bead). The plate was protected from light and incubated for 2 hours at room temperature. After a 2-hour incubation with beads, the plate was read using the Perkin Elmer EnVision Multimode plate reader with excitation at 680 nm and emission at 615 nm.
(In general: Alpha assays give light when donor and acceptor beads are brought close together.)
What is called IC50 is the concentration at which inhibition is half-maximal. With `Cc1ccc2[nH]ncc2c1-c1nc(-c2cc(F)c(F)cc2NC2CNC2)nc(C(N)=O)c1N` [Compound 486], the IC50 is 114 nM.

For the compound `Cc1ccc2[nH]ncc2c1-c1nc(-c2cc(F)c(F)cc2NC(=O)C(C)(C)C)nc(C(N)=O)c1N` [Compound 487], the IC50 was found to be 68 nM.

`Cc1ccc2[nH]ncc2c1-c1nc(-c2cc(F)c(F)cc2NC2CCCC2(C)C)nc(C(N)=O)c1N` (stereo not shown) [Compound 488]: the IC50 was 861 nM.

As to `Cc1ccc2[nH]ncc2c1-c1nc(-c2cc(F)ccc2Nc2cccnn2)nc(C(N)=O)c1N` [Compound 489], the IC50 is 22 nM.

Take `Cc1ccc2[nH]ncc2c1-c1nc(-c2cc(F)ccc2Nc2cnccn2)nc(C(N)=O)c1N` [Compound 490]: the IC50 is 51 nM.

Consider `Cc1ccc2[nH]ncc2c1-c1nc(-c2cc(F)ccc2NS(C)(=O)=O)nc(C(N)=O)c1N` [Compound 491], for which the IC50 turned out to be 45 nM.

Take `Cc1ccc2[nH]ncc2c1-c1nc(-c2cc(F)ccc2Nc2ncc(F)cn2)nc(C(N)=O)c1N` [Compound 492]: the IC50 turned out to be 163 nM.

With `Cc1ccc2[nH]ncc2c1-c1nc(-c2cc(F)ccc2NS(=O)(=O)C(F)F)nc(C(N)=O)c1N` [Compound 493], the IC50 was found to be 681 nM.

As to `Cc1ccc2[nH]ncc2c1-c1nc(-c2ccccc2Nc2ncc(F)cn2)nc(C(N)=O)c1N` [Compound 494], the IC50 turned out to be 144 nM.

Regarding `Cc1ccc2[nH]ncc2c1-c1nc(-c2ccncc2NC(=O)OC(C)(C)C)nc(C(N)=O)c1N` [Compound 495], the IC50 is 198 nM.

`Cc1ccc2[nH]ncc2c1-c1nc(-c2cc(F)c(F)cc2NCc2cccnc2)nc(C(N)=O)c1N` [Compound 496]: the IC50 was determined as 465 nM.

With `Cc1ccc2[nH]ncc2c1-c1nc(-c2cc(F)c(F)cc2NC2COC2)nc(C(N)=O)c1N` [Compound 497], the IC50 stood at 52 nM.

Take `Cc1ccc2[nH]ncc2c1-c1nc(-c2cccnc2Nc2nc(F)ccc2F)nc(C(N)=O)c1F` [Compound 500, 2-(2-((3,6-difluoropyridin-2-yl)amino)pyridin-3-yl)-5-fluoro-6-(5-methyl-1H-indazol-4-yl)pyrimidine-4-carboxamide]: the IC50 is 437 nM.

Consider `Cc1ccc2[nH]ncc2c1-c1nc(-c2cc(F)c(F)cc2NCC(N)CO)nc(C(N)=O)c1N` (stereo not shown) [Compound 501], for which the IC50 came out at 146 nM.

Regarding `Cc1ccc2[nH]ncc2c1-c1nc(-c2cc(F)c(F)cc2NC2CC(C)(C)NC(C)(C)C2)nc(C(N)=O)c1N` [Compound 502], the IC50 stood at 871 nM.

As to `Cc1ccc2[nH]ncc2c1-c1nc(-c2cc(F)c(F)cc2NCC2(C)COC2)nc(C(N)=O)c1N` [Compound 503], the IC50 worked out at 23 nM.

Consider `Cc1ccc2[nH]ncc2c1-c1nc(-c2cc(F)cnc2NCC(F)F)nc(C(N)=O)c1N` [Compound 504], for which the IC50 stood at 31 nM.

`Cc1ccc2[nH]ncc2c1-c1nc(-c2cc(F)ccc2NC(=O)C2(C)CCOCC2)nc(C(N)=O)c1N` [Compound 505]: the IC50 amounted to 36 nM.

As to `Cc1ccc2[nH]ncc2c1-c1nc(-c2cc(F)ccc2Nc2ncc(C#N)s2)nc(C(N)=O)c1N` [Compound 506], the IC50 was 236 nM.

In the case of `Cc1ccc2[nH]ncc2c1-c1nc(-c2ccncc2NC(=O)C(C)(C)C)cc(C(N)=O)c1N` [Compound 507, 5-amino-6-(5-methyl-1H-indazol-4-yl)-3′-pivalamido-[2,4′-bipyridine]-4-carboxamide], the IC50 came to 166 nM.

In the case of `COCC(COC)Nc1cc(F)c(F)cc1-c1nc(C(N)=O)c(N)c(-c2c(C)ccc3[nH]ncc23)n1` [Compound 508], the IC50 was determined as 622 nM.

As to `Cc1c(F)cc2[nH]ncc2c1-c1nc(-c2cc(F)c(F)cc2NC(=O)C2(C(F)(F)F)CC2)nc(C(N)=O)c1N` [Compound 509], the IC50 came to 285 nM.

For `Cc1ccc2[nH]ncc2c1-c1nc(-c2cc(F)ccc2Nc2ncc(Cl)s2)nc(C(N)=O)c1N` [Compound 510], the IC50 is 871 nM.

`Cc1ccc2[nH]ncc2c1-c1nc(-c2ccc(F)cc2Nc2ncccn2)nc(C(N)=O)c1N` [Compound 511]: the IC50 is 25 nM.

Turning to `Cc1ccc2[nH]ncc2c1-c1nc(-c2ccc(F)cc2NS(C)(=O)=O)nc(C(N)=O)c1N` [Compound 512], the IC50 is 52 nM.

For `Cc1ccc2[nH]ncc2c1-c1nc(-c2ccc(F)cc2Nc2ccncn2)nc(C(N)=O)c1N` [Compound 513], the IC50 worked out at 16 nM.

Turning to `Cc1ccc2[nH]ncc2c1-c1nc(-c2cc(F)ccc2NS(=O)(=O)C2CC(F)(F)C2)nc(C(N)=O)c1N` [Compound 514], the IC50 is 1340 nM.

Turning to `Cc1ccc2[nH]ncc2c1-c1nc(-c2ccc(F)cc2Nc2cccnn2)nc(C(N)=O)c1N` [Compound 515], the IC50 was determined as 11 nM.

As to `Cc1ccc2[nH]ncc2c1-c1nc(-c2ccc(F)cc2Nc2ccccn2)nc(C(N)=O)c1N` [Compound 516], the IC50 was determined as 30 nM.

In the case of `Cc1ccc2[nH]ncc2c1-c1nc(-c2cc(F)c(F)cc2NCC2(C#N)CC2)nc(C(N)=O)c1N` [Compound 517], the IC50 turned out to be 139 nM.

For `Cc1ccc2[nH]ncc2c1-c1nc(-c2cccnc2NCC(F)(F)F)nc(C(N)=O)c1N` [Compound 518, 5-amino-6-(5-methyl-1H-indazol-4-yl)-2-(2-((2,2,2-trifluoroethyl)amino)pyridin-3-yl)pyrimidine-4-carboxamide], the IC50 amounted to 18 nM.

As to `Cc1ccc2[nH]ncc2c1-c1nc(-c2cc(F)ccc2Nc2cccnc2)nc(C(N)=O)c1N` [Compound 519, 5-amino-2-(5-fluoro-2-(pyridin-3-ylamino)phenyl)-6-(5-methyl-1H-indazol-4-yl)pyrimidine-4-carboxamide], the half-inhibitory concentration (IC50) worked out at 59 nM.

For `Cc1ccc2[nH]ncc2c1-c1nc(-c2cnccc2NCC(F)(F)F)nc(C(N)=O)c1N` [Compound 520, 5-amino-6-(5-methyl-1H-indazol-4-yl)-2-(4-((2,2,2-trifluoroethyl)amino)pyridin-3-yl)pyrimidine-4-carboxamide], the IC50 amounted to 27 nM.

As for `Cc1ccc2[nH]ncc2c1-c1nc(-c2cc(F)ccc2Nc2cnn(C)c2)nc(C(N)=O)c1N` [Compound 521], the IC50 is 582 nM.

Regarding `Cc1ccc2[nH]ncc2c1-c1nc(-c2cc(F)ccc2Nc2ccnn2C)nc(C(N)=O)c1N` [Compound 522], the IC50 was found to be 101 nM.

Turning to `Cc1cnc(Nc2cc(F)ccc2-c2nc(C(N)=O)c(N)c(-c3c(C)ccc4[nH]ncc34)n2)nc1` [Compound 523], the IC50 turned out to be 269 nM.

`Cc1cc(Nc2cc(F)ccc2-c2nc(C(N)=O)c(N)c(-c3c(C)ccc4[nH]ncc34)n2)ncn1` [Compound 524]: the IC50 worked out at 69 nM.

`Cc1ccc2[nH]ncc2c1-c1nc(-c2ccc(F)cc2Nc2ncncc2F)nc(C(N)=O)c1N` [Compound 526]: the IC50 turned out to be 4 nM.

The test is the same for the next values; noted with them: 2 h, 2 h incubation, read-out: FUOV-1 CDK1 pThr14 IC50.
For the compound `[2H]C([2H])([2H])c1ccc2[nH]ncc2c1-c1nc(-c2ccc(C3CC3)nc2Nc2ncccc2F)nc(C(N)=O)c1N` [Compound 47], the IC50 turned out to be 13 nM.

`COc1cc(-c2nc(C(N)=O)c(N)c(-c3c(C)ccc4[nH]ncc34)n2)ccn1` [Compound 135]: the IC50 was found to be 1150 nM.

As for `Cc1ccc2[nH]ncc2c1-c1cc(-c2ccnc(OCc3ccco3)n2)nc(C(N)=O)c1N` [Compound 213], the IC50 is 404 nM.

On to `CC(=O)N1CCN(c2nccc(-c3cc(-c4c(C)ccc5[nH]ncc45)c(N)c(C(N)=O)n3)n2)CC1` [Compound 215], for which the IC50 came to 399 nM.

Regarding `COC(COc1nccc(-c2cc(-c3c(C)ccc4[nH]ncc34)c(N)c(C(N)=O)n2)n1)c1ccccc1` (stereo not shown) [Compound 238], the IC50 worked out at 92 nM.

`Cc1ccc2[nH]ncc2c1-c1cc(-c2ccnc(OCc3nccn3C)n2)nc(C(N)=O)c1N` [Compound 301]: the IC50 came to 39 nM.

Take `Cc1ccc2[nH]ncc2c1-c1nc(-c2cccnc2Nc2nc(F)ccc2F)nc(C(N)=O)c1Cl` [Compound 314, 5-chloro-2-[2-[(3,6-difluoro-2-pyridyl)amino]-3-pyridyl]-6-(5-methyl-1H-indazol-4-yl)pyrimidine-4-carboxamide]: the IC50 was 1620 nM.

For the compound `Cc1ccc2[nH]ncc2c1-c1cc(-c2ccnc(OCC3(C#N)CC3)n2)nc(C(N)=O)c1N` [Compound 324], the IC50 was found to be 303 nM.

Staying with this test, now noted: 2 h compound incubation, read-out: FUOV-1 CDK1 pThr14 IC50.
In the case of `Cc1ccc2[nH]ncc2c1-c1cc2c(oc3ccc(NC4CCOCC4)nc32)c(C(N)=O)c1N` (atropisomer, axis not shown) [Compound 762], the IC50 stood at 24 nM.

The test is the same for the next values; noted with them: 2 h incubation, read-out: FUOV-1 CDK1 pThr14 IC50.
For `Cc1ccc(O)c(C)c1-c1nc(-c2ccnnc2)cc(C(N)=O)c1N` [Compound 77], the IC50 stood at 179 nM.

With `Cc1ccc2[nH]ncc2c1-c1cc(-c2ccnc(OCC(F)(F)F)n2)nc(C(N)=O)c1N` [Compound 165], the IC50 is greater than 10000 nM.
